The text below walks through data of patent US20240319173A1, “REAGENTS AND METHODS FOR PROMOTING ARTERIAL ENDOTHELIUM DIFFERENTIATION AND NITRIC OXIDE PRODUCTION” (Wisconsin Alumni Research Foundation, priority 2023, published 2024).

The subject of one assay is NOS3-NLuc-2A-tdTomato hPSCs. The assay can be described thus: Arterial endothelial cell (AEC) differentiation, flow cytometry for CD144+ DLL4+ cells. The format is cell-based, human. The note with it: compound added from day 2 to day 6 of differentiation; dose-dependent (FIG. 3A). From the text:
FIG. 3A is a bar graph showing arterial endothelial cell differentiation in response to treatment on days 2 through 6 of different concentrations of compounds identified in compound screening assays. Differentiated arterial endothelial cells were identified by flow cytometry for CD144+ DLL4+ cells after 6 days of treatment.
FIG. 3B is a bar graph showing arterial endothelial cell differentiation in response to three specific compounds at day 3-6 of differentiation.
NOS3-NLuc-Tom human pluripotent stem cells (hPSCs), prepared as set forth above, were cultured in E8BAC medium for two days (day 0-2) to induce mesoderm formation. On days 2-5 cells received Five Factor medium daily, and AEC collected on day 6. More than 90% of the resulting cells were CD144^+CXCR4^+DLL4^+, consistent with differentiation to AEC cells.
C21-C33 compounds were further tested to confirm their effects. […] Thus, the effects of C21, C22, and C24-C31 on AEC differentiation from NOS3-NLuc-2A-tdTomato hPSCs were measured.
In general terms: A flow cytometer gives signals particle by particle.
For the molecule `O=S(=O)(N1CCCCCC1)N1CCN(c2ccnc3cc(Cl)ccc23)CC1` [C21], the “percentage of AEC on day 6 compared to control treatment” value (from here on “percentage of AEC”) was “increase”.
In the case of `COc1ccc(C2CCCN2Cc2cc(C(C)(C)C)cc(O)c2O)cc1` (centres unmarked) [C22], the “percentage of AEC” value is “increase”.

Staying with this assay, now noted: compound added from day 3 to day 6 of differentiation (FIG. 3B).
For the molecule `O=S(=O)(N1CCCCCC1)N1CCN(c2ccnc3cc(Cl)ccc23)CC1` [C21], the “percentage of AEC” value was “increased”.
Turning to `CCc1ccc(S(=O)(=O)N2CCCc3cc(C)ccc32)cc1` [C23], the “percentage of AEC” value is “increased”.
On to `CCCCCCCCCCCCCCCCCCOCC(COP(=O)([O-])OCC[N+](C)(C)C)OC` (centres unmarked) [C33, 1-Octadecyl-2-methylglycero-3 PC], for which the “percentage of AEC” value is “increased”.

The assay is the same for the next values; noted with them: general statement, timing not given.
Regarding `O=S(=O)(N1CCCCCC1)N1CCN(c2ccnc3cc(Cl)ccc23)CC1` [C21], the “AEC differentiation from PSCs” value is recorded as “increase”.
In the case of `COc1ccc(C2CCCN2Cc2cc(C(C)(C)C)cc(O)c2O)cc1` (centres unmarked) [C22], the “AEC differentiation from PSCs” value was “increase”.
The same measure, in the same setting: the same measure for `CCc1ccc(S(=O)(=O)N2CCCc3cc(C)ccc32)cc1` [C23]: “increase”; for `Cc1ccc(CN2C(=O)NC(C)(c3ccc(Cl)cc3Cl)C2=O)cc1` (centres unmarked) [C24]: “increase”; for `CNS(=O)(=O)c1ccc(NC2CCc3ccccc32)c([N+](=O)[O-])c1` (centres unmarked) [C25]: “increase”.
With `CC1=CC(=O)C2=C(C)CC[C@@H]3[C@H](OC(=O)[C@H]3C)[C@@H]12` [C28, Leucomisine], the “AEC differentiation from PSCs” value was “increase”.
With `CCCCCCCCCCCCCCCCCCOCC(COP(=O)([O-])OCC[N+](C)(C)C)OC` (centres unmarked) [C33, 1-Octadecyl-2-methylglycero-3 PC], the “AEC differentiation from PSCs” value is listed as “increase”.

In a further assay the test system is AECs. The experiment in a line: Nitric oxide (NO) production assay with DAF-FM. In kind it is cell-based, human. The conditions noted are these: AECs treated for 2 days, 1 μM DAF-FM, flow cytometry (FIG. 4A, 4B). The method, then: FIG. 4A is a graph of nitric oxide (NO) production in response to contacting NOS3-NLuc-2A-tdTomato construct-containing reporter cells derived from arterial endothelial with compounds identified in the screen for 2 days.
These AECs were seeded on a vitronectin-coated 24-well plate (1×10^5 cells/well) with FVIR medium. Candidate compounds were added to the medium. Two days later, the medium was changed to fresh FVIR media containing 1 μM DAF-FM (4-Amino-5-Methylamino-2′,7′-Difluorofluorescein Diacetate). Cells were cultured for 30 mins and harvested for flow cytometric analysis. DAF-FM is nonfluorescent until it reacts with NO to form a fluorescent benzotriazole. Results of these experiments are shown in FIG. 3A, FIG. 3B, and FIG. 4.
Regarding `O=S(=O)(N1CCCCCC1)N1CCN(c2ccnc3cc(Cl)ccc23)CC1` [C21], the “NO production (DAF-FM fluorescence) compared to control treatment” value is reported as “increase”.
On the same count and under the same terms, the same measure for `COc1ccc(C2CCCN2Cc2cc(C(C)(C)C)cc(O)c2O)cc1` (centres unmarked) [C22]: “increase”; for `CCc1ccc(S(=O)(=O)N2CCCc3cc(C)ccc32)cc1` [C23]: “increase”.
Same read-out and setting: the same measure for `Cc1ccc(CN2C(=O)NC(C)(c3ccc(Cl)cc3Cl)C2=O)cc1` (centres unmarked) [C24]: “increase”; for `CNC(=O)c1c(F)cccc1Nc1nc(Nc2cc3c(cc2OC)CCN3C(=O)CN(C)C)nc2[nH]ccc12` [C31, GSK1838705A, reference compound]: “increase”.
